Literature values in patent US8415299B2, “Methods for improved avian performance” (priority 2004, dated 2013).

Assays:
[1] = test system: laying hens; conditions: cited from earlier work
[2] = test system: T4 and rT3 deiodination systems; conditions: rat liver homogenates; cited from earlier work

Compound: C[C@]12C[C@H](O)[C@H]3[C@@H](CCC4=CC(=O)CC[C@@]43C)[C@@H]1CC[C@@H]2C(=O)CO [corticosterone]
- Laying hens with cessation of egg production ([1]; 20 to 40 mg/kg diet (Wolford et al. 1983)): 98%

Compound: I [iodide]
- Effect on egg production ([1]; 5,000 mg/kg diet): cessation of egg production

Compound: C=C1C[C@H]2[C@@H]3C=C(C)C4=CC(=O)CC[C@]4(C)[C@H]3CC[C@]2(C)[C@@]1(OC(C)=O)C(C)=O [melengestrol acetate]
- Effect on reproductive system ([1]; 4 or 8 mg per laying hen per day through the feed (Koch et al. 2004)): reversible regression of the reproductive system

Compound: [Zn+2] [zinc]
- Action on progesterone production in F1 granulosa cells of the ovary ([1]; 2,800 mg/kg diet (Johnson and Brake 1992)): inhibitory action
- Inhibition of T4 and rT3 deiodination [2]: potent inhibitor

Compound: CCNC(=O)[C@@H]1CCCN1C(=O)[C@H](CCCNC(=N)N)NC(=O)[C@H](CC(C)C)NC(=O)[C@@H](CC(C)C)NC(=O)[C@H](Cc1ccc(O)cc1)NC(=O)[C@H](CO)NC(=O)[C@H](Cc1c[nH]c2ccccc12)NC(=O)[C@H](Cc1c[nH]cn1)NC(=O)[C@@H]1CCC(=O)N1 [leuprolide acetate]
- Body weight ([1]; single i.m. depot injection releasing 60 mcg/kg body weight per day for 30 days): no body weight loss
- Egg production ([1]; single i.m. depot injection releasing 60 mcg/kg body weight per day for 30 days, second week (Burke and Attia 1994)): 3.5%
